Test results taken from ChEMBL document CHEMBL3865818, “4,5-Diaryl-3H-1,2-dithiole-3-thiones and related compounds as combretastatin A-4/oltipraz hybrids: Synthesis, molecular modelling and evaluation as antiproliferative agents and inhibitors of tubulin” (Eur J Med Chem, 2016).
The source made the active and inactive calls. The rule behind the calls is not given here.

Columns and labels:
[1] = Antiproliferative activity against human HT1080 cells measured after 72 hrs by MTT assay; assay type: functional, cell-based; conditions: HT-1080, 72 h
[2] = Antiproliferative activity against human SGC7901 cells measured after 72 hrs by MTT assay; assay type: functional, cell-based; conditions: SGC-7901, 72 h
[3] = Antiproliferative activity against human KB cells measured after 72 hrs by MTT assay; assay type: functional, cell-based
[4] = Inhibition of porcine brain tubulin polymerization measured after 60 mins by fluorescence analysis; set-up: species or system Sus scrofa
[5] = Cell cycle arrest in human KB cells assessed as accumulation at G2/M-phase at 0.2 uM measured up to 60 hrs by propidium iodide staining-based flow cytometry; assay type: functional
[6] = Cell cycle arrest in human KB cells assessed as accumulation at G2/M-phase up to 0.2 uM measured after 24 hrs by propidium iodide staining-based flow cytometry; assay type: functional
[7] = Antitumor activity against mouse SVR cells implanted in athymic nude mouse assessed as tumor growth inhibition at 250 mg/kg, po qd for 10 days measured on day 4 relative to control; conditions: read-out: TGI

Row | IC50 [4] [µM] | Structure (SMILES) | IC50 [1] [µM] | IC50 [2] [µM] | IC50 [3] [µM] | Activity [5] | Activity [6] | inhibition in vivo at 250 mg/kg [7] [%]
1 |  | COc1ccc(-c2c(-c3cc(OC)c(OC)c(OC)c3)ssc2=O)cc1N | > 100 | > 100 | > 100 |  |  | 
2 |  | CO/N=c1/ssc(-c2ccc(OC)c(O)c2)c1-c1cc(OC)c(OC)c(OC)c1 | 4.6 | 10 | 14.5 |  |  | 
3 |  | COc1ccc(-c2c(-c3cc(OC)c(OC)c(OC)c3)ssc2=S)cc1[N+](=O)[O-] | 3.55 | 44.7 | 38.2 |  |  | 
4 |  | CO/N=c1/ssc(-c2ccc(OC)c(N)c2)c1-c1cc(OC)c(OC)c(OC)c1 | 4.23 | > 100 | 4.33 |  |  | 
5 |  | COc1ccc(-c2ssc(=O)c2-c2cc(OC)c(OC)c(OC)c2)cc1 | 0.464 | 0.134 | 0.324 |  |  | 
6 |  | COc1ccc(-c2ssc(=S)c2-c2cc(OC)c(OC)c(OC)c2)cc1O | 0.231 | 0.271 | 0.435 |  |  | 
7 |  | COc1ccc(-c2c(-c3cc(OC)c(OC)c(OC)c3)ssc2=O)cc1 | > 100 | > 100 | > 100 |  |  | 
8 | 12.8 | COc1ccc(-c2ss/c(=N/O)c2-c2cc(OC)c(OC)c(OC)c2)cc1N | 9.36 | 4.3 | 0.099 | Active | Active | 
9 |  | CO/N=c1/ssc(-c2cc(OC)c(OC)c(OC)c2)c1-c1ccc(OC)c([N+](=O)[O-])c1 | > 100 | > 100 | > 100 |  |  | 
10 |  | COc1ccc(-c2c(-c3cc(OC)c(OC)c(OC)c3)ssc2=S)cc1 | 2.27 | 2.35 | 1.14 |  |  | 
11 |  | COc1ccc(-c2ssc(=S)c2-c2cc(OC)c(OC)c(OC)c2)cc1N | 0.834 | 0.444 | 0.327 |  |  | 
12 |  | COc1ccc(-c2c(-c3cc(OC)c(OC)c(OC)c3)ss/c2=N/O)cc1N | 2.91 | 2.91 | 2.91 |  |  | 
13 |  | COc1ccc(-c2c(-c3cc(OC)c(OC)c(OC)c3)ssc2=S)cc1N | 3 | 2.62 | 2.17 |  |  | 
14 |  | COc1ccc(-c2ss/c(=N/O)c2-c2cc(OC)c(OC)c(OC)c2)cc1 | 6.66 | 17.4 | 13.7 |  |  | 
15 |  | COc1ccc(-c2ssc(=S)c2-c2cc(OC)c(OC)c(OC)c2)cc1[N+](=O)[O-] | 9.14 | 13.6 | > 100 |  |  | 
16 |  | COc1ccc(-c2c(-c3cc(OC)c(OC)c(OC)c3)ss/c2=N/O)cc1[N+](=O)[O-] | 3.03 | 6.56 | 5.26 |  |  | 
17 | 9.71 | COc1ccc(-c2ssc(=O)c2-c2cc(OC)c(OC)c(OC)c2)cc1O | 1.91 | 3.11 | 0.46 | Active | Active | 
18 |  | COc1ccc(-c2ss/c(=N/O)c2-c2cc(OC)c(OC)c(OC)c2)cc1O | 0.73 | 0.2 | 0.85 |  |  | 
19 |  | COc1ccc(-c2ssc(=O)c2-c2cc(OC)c(OC)c(OC)c2)cc1[N+](=O)[O-] | 4.22 | 0.44 | 22.3 |  |  | 
20 |  | COc1ccc(-c2c(-c3cc(OC)c(OC)c(OC)c3)ssc2=O)cc1[N+](=O)[O-] | > 100 | > 100 | > 100 |  |  | 
21 |  | CO/N=c1/ssc(-c2cc(OC)c(OC)c(OC)c2)c1-c1ccc(OC)c(N)c1 | 0.915 | 1.96 | 0.517 |  |  | 
22 |  | Cc1c(-c2cnccn2)ssc1=S [OLTIPRAZ] |  |  |  |  |  | 81
23 |  | COc1ccc(-c2c(-c3cc(OC)c(OC)c(OC)c3)ss/c2=N/O)cc1 | > 100 | > 100 | > 100 |  |  | 
24 |  | COc1ccc(-c2ssc(=S)c2-c2cc(OC)c(OC)c(OC)c2)cc1 | 18.6 | 21.1 | 4.91 |  |  | 

Row | Structure (SMILES) | IC50 [4] [µM] | IC50 [1] [µM] | IC50 [2] [µM] | IC50 [3] [µM] | Activity [5] | Activity [6] | inhibition in vivo at 250 mg/kg [7] [%]
25 | COc1ccc(/C=C\c2cc(OC)c(OC)c(OC)c2)cc1O [COMBRETASTATIN A4] | 0.92 | 0.01 | 0.026 | 0.007 |  |  | 
